In US20220296718A1, “EXCIPIENT FOR BIOTHERAPEUTICS” (Ludwig-Maximilians-Universität München, priority 2019, published 2022):

Assays:
Type in all cases: physicochemical
[1] = test system: recombinant IgG antibody, either rituximab or omalizumab; assay: Particles and turbidity (visual inspection) after freezing/thawing and stirring stress of rituximab or omalizumab; conditions: 10 mg/ml rituximab or omalizumab, 20 mM histidine pH 6.0, 75 mM excipient; compared with trehalose, sucrose, or trehalose or sucrose with methionine
Procedure: Production of Test Solutions: The buffer solution consisted of 20 mM histidine buffer pH 6.0. Protein stock solutions were liberated from other excipients by dialysis over 24 h in buffer solution 100-200 times of their volumes. The buffer solution was renewed after 6 hours and after 20 hours. Stock solutions of test excipients were produced by dissolving 500 mM of the excipient in 90% of the required amount of buffer solution. After that, the pH was adjusted and the remaining volume of buffer solution was added. Then, the solution was filtered with a 0.22 μm filter. The corresponding amount of protein stock solution was added. Sufficient homogenization was provided.
(§1) Freeze/Thaw-Cycle: The protein-containing solutions were filled into cleaned 6R vials and crimped. The samples were frozen from 20° C. to −70° C. in 5 cycles in a freezer and then thawed at room temperature until the entire sample had reached the liquid state, before the cycle was started again.
Stirring Stress: The protein-containing solutions were filled into cleaned 6R vials and crimped. Afterwards, the samples were stirred for 2 h at 200 rpm with a magnetic stirrer (Variomag Poly 15, Thermofisher, 5 mm polytetrafluoroethylene—coated stirring bars).
Visual inspection: 3 Vials of each formulation were visually inspected according to the method described in the European Pharmacopoeia. […]

IgG antibody trastuzumab [2] = assay: Particle formation after freezing/thawing stress of trastuzumab (flow imaging microscopy); conditions: 50 mM phosphate buffer, pH 7.0; 5 mg/ml trastuzumab; 50 mM excipient; FIG. 1
Procedure: (§2) Production of Test Solutions: The buffer solution consisted of 50 mM sodium phosphate at pH 7.0. Protein stock solutions were liberated from other excipients by IEX chromatography to remove potential impurities and surfactants and by dialysis over 24 h in buffer solution 100-200 times of their volumes. The buffer solution was renewed after 3 hours and after 14 hours. Stock solutions of test excipients were produced by dissolving 500 mM of the excipient in 90% of the required amount of buffer solution. After that, the pH was adjusted and the remaining volume of buffer solution was added. Then, the solution was filtered with a 0.22 μm filter. The corresponding amount of protein stock solution was added. Sufficient homogenization was provided.
as §1, with “2R” for “6R”, “−50°” for “−70°”, “3” for “5”, “cycles at a rate of 2K/min” for “cycles”, “Christ 2D-6 freeze dryer” for “freezer”
(§3) Flow Imaging Microscopy: 165 μl of the sample solution were measured at 10× magnification using a flow imaging microscope (FlowCam, Fluid Imaging Technologies, Inc., Scarborough, Me., USA).
(§4) The resulting solutions were subjected to freezing/thawing stress and stirring stress.

interferon-alpha-2a = interferon-alpha-2a (Homo sapiens, UniProt P01563, R46K); assay: Particle formation after freezing/thawing stress of interferon-alpha-2a; conditions: 50 mM phosphate buffer, pH 7.0; 1 mg/ml interferon-alpha-2a; 50 mM excipient; FIG. 3
Procedure: as §2
as §1, with “2R” for “6R”, “−50°” for “−70°”, “3” for “5”, “cycles at a rate of 2K/min” for “cycles”, “Christ 2D-6 freeze dryer” for “freezer”
as §3
The resulting solutions were subjected to freeze/thawing stress.

[3] = Solubility in water, classification of the European Pharmacopoeia
Procedure: In certain embodiments, the diamide has a solubility in water of at least about 0.02% (w/v), of at least about 0.05% (w/v), of at least about 0.1% (w/v), of at least about 0.5% (w/v) or of at least about 1% (w/v) at 20° C., e.g. as determined by the column elution method according to the OECD Guidelines, Test No. 105. Preferably, the diamide is considered as soluble, well soluble or freely soluble according to the classifications of the European Pharmacopoeia, which is herein incorporated by reference.

recombinant anakinra = recombinant anakinra (Homo sapiens, UniProt P18510); assay: Particles and turbidity after freezing/thawing and stirring stress of anakinra; conditions: 50 mg/ml anakinra, 20 mM citrate pH 6.5, 50 mM excipient, freezing/thawing and 3 h stirring stress
Procedure: (§5) The production of test solutions, the freeze/thaw-cycle, the measurement of stirring stress and the visual inspection were performed substantially as described in Example 4.
The buffer solution consisted of 20 mM citrate buffer pH 6.5. The samples were stirred for 3 h.
N,N,N′,N′-tetrakis-(2-hydroxyethyl) adipinic acid amide (Ark Pharm Inc.), D(+) or trehalose (Sigma-Aldrich), or polysorbate 80, was added as a test excipient to an aqueous solution containing recombinant anakinra. […] In the case of polysorbate 80 its concentration was 0.05%. The resulting solutions were subjected to freezing/thawing stress and stirring stress.

recombinant G-CSF = biological target: T1, recombinant G-CSF (Homo sapiens, UniProt P09919); assay: Particles and turbidity after freezing/thawing and stirring stress of G-CSF; conditions: 1 mg/ml G-CSF, 10 mM acetate pH 4.5, 50 mM excipient; compared with trehalose, sucrose, or trehalose or sucrose with methionine
T1 sequence (P09919 31-207): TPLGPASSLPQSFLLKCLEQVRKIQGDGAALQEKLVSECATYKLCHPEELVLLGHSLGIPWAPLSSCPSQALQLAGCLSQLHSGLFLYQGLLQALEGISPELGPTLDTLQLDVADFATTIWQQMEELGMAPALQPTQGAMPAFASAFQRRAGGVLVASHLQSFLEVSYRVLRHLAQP
Procedure: as §5
The buffer solution consisted of 10 mM acetate buffer pH 4.5 and was renewed after 4 hours and after 16 hours. For the freeze/thaw cycle and the measurements of stirring stress, 2R vials were used.
N,N,N′,N′-tetrakis-(2-hydroxyethyl) adipinic acid amide (Ark Pharm Inc.), D(+) trehalose (Sigma-Aldrich), sucrose, and mixtures of trehalose or sucrose with methionine (Sigma-Aldrich) respectively, was added as a test excipient to an aqueous solution containing recombinant G-CSF. […] In the case of sucrose or trehalose mixtures with methionine, the concentration of the sugar was 50 mM, and the concentration of methionine was 20 mM. The resulting solutions were subjected to freezing/thawing stress and stirring stress.

IgG antibody trastuzumab [4] = assay: Particle formation after stirring stress of trastuzumab (flow imaging microscopy); conditions: 50 mM phosphate buffer, pH 7.0; 5 mg/ml trastuzumab; 50 mM excipient; 2 h at 200 rpm; FIG. 2
Procedure: as §2
Stirring Stress: The protein-containing solutions were filled into cleaned 2R vials and crimped. Afterwards, the samples were stirred for 2 h at 200 rpm with a magnetic stirrer (Variomag Poly 15, Thermofisher, 3 mm polytetrafluoroethylene—coated stirring bars).
as §3, §4

recombinant anakinra, sequence (P18510 with tags, fused parts or gaps): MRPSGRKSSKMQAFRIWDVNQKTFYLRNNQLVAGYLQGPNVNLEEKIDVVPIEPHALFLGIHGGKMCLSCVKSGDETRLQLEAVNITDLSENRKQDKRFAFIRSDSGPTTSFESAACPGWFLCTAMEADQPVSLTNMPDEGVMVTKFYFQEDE
interferon-alpha-2a, sequence (P01563 24-188 R46K): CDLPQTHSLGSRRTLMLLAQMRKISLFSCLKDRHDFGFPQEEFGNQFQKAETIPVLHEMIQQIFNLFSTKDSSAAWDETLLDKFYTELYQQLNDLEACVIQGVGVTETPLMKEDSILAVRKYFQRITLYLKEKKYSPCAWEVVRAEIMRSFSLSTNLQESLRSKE

Compound	Particles in stressed formulations [1]	Turbidity of stressed formulations [1]	Amount of particles after 3 freezing/thawing cycles (IgG antibody trastuzumab [2])	Amount of particles after 3 freezing/thawing cycles (interferon-alpha-2a)	Solubility according to the classification of the European Pharmacopoeia [3]	Particles in stressed formulations, compared with trehalose (recombinant anakinra)	Turbidity of stressed formulations, compared with trehalose (recombinant anakinra)	Particles in stressed formulations, compared with polysorbate 80 (recombinant anakinra; polysorbate 80 at 0.05%)	Turbidity of stressed formulations, compared with polysorbate 80 (recombinant anakinra; polysorbate 80 at 0.05%)	Particles in stressed formulations (recombinant G-CSF)	Turbidity of stressed formulations (recombinant G-CSF)	Amount of particles after stirring stress (IgG antibody trastuzumab [4])
O=C(CCCCC(=O)N(CCO)CCO)N(CCO)CCO [compound A, N,N,N′,N′-tetrakis-(2-hydroxyethyl) adipinic acid amide]	less particles	less turbid	less particles than formulations comprising standard excipients like, glycerol, NaCl, or D(+) trehalose or formulations without any excipients	less particles than formulations without any excipient and formulations with arginine or polysorbate 20	well soluble	less particles	less turbid	about equally low amounts of particles	about equally low in turbidity	less particles	less turbid	less particles than formulations comprising standard excipients like, glycerol, NaCl, or D(+) trehalose or formulations without any excipients
Polysorbate 20 [reference compound]			even less particles									
